Source: patent publication US8455450B2, “Methods for obtaining a therapeutically effective amount of hematopoietic precursor cells and long term engraftment thereof” (Biokine Therapeutics Ltd., priority 2006, dated 2013)
Bridge positions count the residues as written; N and C are the ends. Square brackets hold non-standard residues; d marks the D form. Peptide text beside a SMILES is read from it. * marks the point of attachment. 2Nal = N[C@@H](Cc1ccc2ccccc2c1)C(=O)O; Benzoyl(4-F) = O=C(c1ccc(F)cc1)*; Cit = NC(=O)NCCC[C@H](N)C(=O)O

Columns and labels:
white-blood-cells (WBC) = format: in vivo
proerythroblast cells = assay: Proerythroblasts in blood, FACS with anti-Ter-119; format: in vivo, C57BL/6 mice; details: 5 mg/kg s.c.; 2 hours
Experimental: To assess the number of cells in blood and BM, and to distinguish between the different populations, FACScan flow cytometer was used. Cells derived from these organs were gated according to forward scatter and side scatter to exclude dead cells and to determine granulocytes, mononuclear cells and activated macrophage populations. The number of each cell population was counted. Cells were also stained in 0.1 ml FACS buffer with fluorescence antibodies directed against Gr-1, CD3, mac-1, F4/80, Nk1.1, B220 and Ter-119 molecules or matched isotype controls (all from eBiosience, San Diego, Calif.) for 30 min and washed with FACS buffer.
C57BL/6 mice were s.c. injected with 5 mg/kg 4F-benzoyl-TN14003. 2 hours later blood was obtained and the number of proerythroblast cells was evaluated by FACS following staining with anti-Ter-119 (FITC). Data are expressed as average±SD of five mice/group.

[1] = test system: granulocytes (GR-1 positive cells); assay: Granulocyte (GR-1 positive) counts in blood and bone marrow in a chemotherapy model; format: in vivo, mice; details: CPM 250 mg/kg total i.p.; 4F-benzoyl-TN14003 5 mg/kg s.c., G-CSF 5 μg/mouse
Experimental: Mice received a total dose of 250 mg/kg cyclophosphamide (CPM) by two 0.25 ml intra-peritoneal injections scheduled at day 0 (150 mg/kg) and day 3 (100 mg/kg). Mice were subcutaneously treated with 0.2 ml of 4F-benzoyl-TN14003 (5 mg/kg) at the indicated time points, as detailed in FIG. 13A. Flow cytometery was used to assess the number of cells in the blood and bone marrow (BM), and distinguish between the different populations. Cells were gated according to forward scatter and side scatter to exclude dead cells and to identify granulocytes (GR-1 positive cells).
Mice received a total dose of 250 mg/kg CPM by two 0.25 ml intra-peritoneal injections scheduled at day 0 (150 mg/kg) and day 3 (100 mg/kg). Mice were subcutaneously treated with 0.2 ml of 4F-benzoyl-TN14003 (5 mg/kg) or G-CSF 5 μg/mouse or the combination of both at the indicated time points as detailed in FIG. 14A. Flow cytometery was used to assess the number of cells in the blood and bone marrow (BM) and distinguish between the different populations. Cells were gated according to forward scatter and side scatter to exclude dead cells and to determine granulocytes (GR-1 positive cells).

PC3-CXCR4.5 cells = assay: MIP3α secretion by CXCR4-overexpressing PC3-CXCR4.5 cells (ELISA); format: cell-based; details: transfection with CXCR4-specific or control siRNA
Source text: A PC3 prostate cell line that overexpresses high levels of CXCR4 was generated. […] FIG. 1A presents FACS histograms of PC3 cells (left panel) and a single cell clone with stable overexpression of CXCR4, GFP and luc genes (PC3-CXCR4.5, right panel) that were stained for the control (IgG2a-PE, full histograms) and CXCR4 (IgG2a-12G5, empty histograms) antibodies.
In this example, regulation of the chemokine MIP3α (macrophage inflammatory protein 3α) was examined. […] In FIG. 1B, PC3 (left panel) and PC3-CXCR4.5 (right panel) cells were stimulated with the indicated concentrations of CXCL12 for 48 hours and MIP3α secretion was assessed by ELISA. The results represent the average of triplicates±STDEV.
The effects of the CXCR4 antagonist AMD3100 and of 4F-benzoyl-TN14003 (4FB-TN14003), hitherto known as a CXCR4 antagonist, on MIP3α secretion were further tested. […] In FIG. 10, CXCR4 signaling in PC3 (left panel) and PC3-CXCR4.5 (right panel) cells was inhibited with anti-CXCL12 antibodies (αCXCL12) and Pertussis toxin (PTX) treatments alone or in combination with CXCL12, as indicated. Secretion of MIP3α was assessed by ELISA. The results represent the average of triplicates±STDEV.
Spontaneous secretion of MIP3α is CXCL12 and PTX independent in these cells.

[2] = test system: GR-1 positive cells, MNC and progenitors; assay: Cell counts in a bone marrow transplantation model; format: in vivo, mice; details: 900 Rad irradiation, BM transplant 5×10^6/mouse; 5 mg/kg s.c.
Source text: Mice received lethal total body irradiations of 900 Rad and were subsequently transplanted with BM cells from donor healthy mice (5×10^6/mouse). […] Flow cytometery was used to assess the number of cells in the blood and bone marrow (BM), and distinguish between the different populations. Cells were gated according to forward scatter and side scatter to exclude dead cells and to determine granulocytes (GR-1 positive cells) and mononuclear cells (MNC).

[3] = test system: BM cells on stromal cells (14F1.1); assay: In vitro production of progenitors and mature cells from BM cells seeded on stromal cells (14F1.1); format: cell-based
Experimental: More specifically, the number of colonies was assayed by collecting the cells (10^5/plate) 4 days after treatment form the treated and control (untreated) plates, and evaluating the number of progenitor cells using a colony-forming cell assay. Burst forming units erythrocyte (BFU-E), colony forming units granulocyte-macrophage (CFU-GM), colony forming units megakaryocytes (CFU-M), and colony forming units granulocyte-erythrocyte-monocyte-macrophage (CFU-GEMM) were assayed by plating the cells in Iscove's-modified Dulbecco's Medium (IMDM) containing 1% methylcellulose, 15% FBS, 1% bovine serum albumin (BSA), 3 U/mL rh EPO, […] 2-mercaptoethanol, 2 mM L-glutamine, 50 ng/mL rmSCF, 10 ng/mL rmIL-3, […] rh Insulin, 10 ng/mL rh IL-6, and […] Human Transferrin (Methocult GF M3434; StemCell Technologies Inc.). The cultures were incubated at 37° C. in a humidified atmosphere containing 5% CO2. Seven days later, typical colonies were visually scored by morphologic criteria using a light microscope and the frequency of CFU was calculated. Staining colonies with benzidine dihydrochloride (Sigma, Israel) was used to localize hemoglobin-containing cells.

[4] = 5 mg/kg s.c. 4F-benzoyl-TN14003 or AMD3100, 2 h, G-CSF 2.5 μg s.c. twice a day for 4 days, combination 18 h after last G-CSF
[5] = peak at 10 mg/kg s.c., 2 hours post-injection

N=C(N)NCCC[C@H](NC(=O)[C@@H]1CSSC[C@H](NC(=O)[C@H](Cc2ccc3ccccc3c2)NC(=O)[C@H](CCCNC(=N)N)NC(=O)[C@H](CCCNC(=N)N)NC(=O)c2ccc(F)cc2)C(=O)N[C@@H](Cc2ccc(O)cc2)C(=O)N[C@@H](CCCNC(N)=O)C(=O)N[C@@H](CCCCN)C(=O)N[C@H](CCCCN)C(=O)N2CCC[C@H]2C(=O)N[C@@H](Cc2ccc(O)cc2)C(=O)N[C@@H](CCCNC(=N)N)C(=O)N[C@@H](CCCNC(N)=O)C(=O)N1)C(N)=O [4F-benzoyl-TN14003, 4F-benzoly-Arg-Arg-Nal-Cys-Tyr-Cit-Lys-DLys-Pro-Tyr-Arg-Cit-Cys-Arg-NH2] ({Benzoyl(4-F)}-RR[2Nal]CY[Cit]K[dK]PYR[Cit]CR-NH2; disulfide 4-13)
MNCs in the blood, full return to the baseline level (white-blood-cells (WBC); 5 mg/kg s.c.): 4 h
activated macrophages in the blood, return to the baseline level (white-blood-cells (WBC); 5 mg/kg s.c.): 24 h
activated macrophages in the blood, time of peak (white-blood-cells (WBC); 5 mg/kg s.c.): 1 h
neutrophils in the blood, decrease to the baseline level (white-blood-cells (WBC); 5 mg/kg s.c.): 24 h
neutrophils in the blood, time of peak (white-blood-cells (WBC); 5 mg/kg s.c.): 1 to 2 h
Activated macrophages, fold elevation of cell counts from control (white-blood-cells (WBC); [4]): 4.2 fold
MNC, fold elevation of cell counts from control (white-blood-cells (WBC); [4]): 2.3 fold
Neutrophils, fold elevation of cell counts from control (white-blood-cells (WBC); [4]): 6.1 fold
mononuclear cells (MNCs) in the blood, fold elevation from control (white-blood-cells (WBC); 5 mg/kg s.c., after 30 minutes): 2 fold
number of neutrophils in the blood, fold change from control at peak (white-blood-cells (WBC); 5 mg/kg s.c., peak after 1 to 2 hours): > 12 fold
number of WBC in blood, fold elevation compared to control mice (peak of dose response) (white-blood-cells (WBC); dose 5 mg/kg s.c., 2 hours post-injection): 2.5 fold
number of white blood cells within the BM (white-blood-cells (WBC); intact mice, 5 mg/kg s.c.): no changes were observed
MNCs in blood, fold change from control (white-blood-cells (WBC); [5]): 3.5 fold
absolute number of neutrophils in blood, fold change compared to control (white-blood-cells (WBC); [5]): ~8 fold
activated macrophages in blood, fold change from control (white-blood-cells (WBC); [5]): 6 fold
total WBC in blood, full return to the baseline level (white-blood-cells (WBC); single dose 5 mg/kg s.c.): 24 h
number of total WBC in blood, fold change from control (white-blood-cells (WBC); single dose 5 mg/kg s.c., after 30 minutes): 2 fold
mobilization of T cells, B cells and monocytes (FACS) (white-blood-cells (WBC); staining CD3, B220, Mac-1): had an effect on the mobilization of T cells, B cells and monocytes
mobilization of NK cells (FACS) (white-blood-cells (WBC); staining Nk1.1): had no effect on the mobilization of NK cells
number of proerythroblasts (Ter119) in blood, fold elevation from the control level (proerythroblast cells): 3.2 fold
GR-1 positive cells in the blood (flow cytometry) [1]: mobilize GR-1 positive cells to the blood and reduce neutropenia
relative numbers (ratio) of GR-1 positive cells in the blood and BM [1]: release cells from the inhibitory effect of the BM stroma
CXCR4 dependence of induced MIP3α secretion (PC3-CXCR4.5 cells): CXCR4 dependent
GR-1 and MNC cell counts in the BM [2]: stimulate GR-1 (left panel) and MNC (right panel) production in the BM
GR-1 positive cells in the blood [2]: mobilize GR-1 positive cells and reduce neutropenia
progenitor cell counts (total, CFU-GM, CFU-M, BFU-E, CFU-GEMM) in the BM [2]: stimulate production of various progenitors in the BM
differentiation and proliferation of BM cells on stromal cells (micrographs) ([3]; representative experiment, FIG. 17E): differentiating and proliferating
production of GR-1 and Ter119 positive cells and progenitors ([3]; stromal cells (14F1.1) seeded with BM cells, 4F-benzoyl-TN14003 10 microgram/ml, G-CSF 100 ng/ml, 4 days): stimulated the production of GR-1 and Ter119 positive cells as well as progenitors
